Test results: publication doi:10.1101/2022.03.11.483894v1, “Structure and function of diadenylate cyclase DacM from Mycoplasma ovipneumoniae” (biorxiv, 2022)

Target: T1, DacM (Δ2-33DacM; DacM (35-203)) (Mesomycoplasma ovipneumoniae, UniProt A0A014M399)
T1 construct: gene MOVI_0530; N-terminal transmembrane helix removed (Δ2-33); codon-optimized gene in pET28b, E. coli BL21(DE3), N-terminal His6 fusion; homodimer in crystal
T1 sequence (A0A014M399 35-203): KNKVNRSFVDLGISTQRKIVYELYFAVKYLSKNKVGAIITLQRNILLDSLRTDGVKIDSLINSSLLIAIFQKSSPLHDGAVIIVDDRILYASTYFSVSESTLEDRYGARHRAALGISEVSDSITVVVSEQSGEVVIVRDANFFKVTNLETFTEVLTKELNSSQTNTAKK
Assay: X-ray crystal structure of complex, […] Å; also LC-MS detection of c-di-AMP formation
Type: binding
Details: activity assay: 2 μM enzyme, 10 mM MgCl2, Tris-HCl pH 7.5, 37 °C, 1 h

| Compound | X-ray crystal structure of complex, 1.9 Å; also LC-MS detection of c-di-AMP form (crystal grown with ATP as additive, 16 °C, HEPES pH 7.5, active site of protomer B, 0.1 mM ADP) | X-ray crystal structure of complex, 1.9 Å; also LC-MS detection of c-di-AMP form (crystal: 16 °C, HEPES pH 7.5, active site of protomer A, 0.1 mM ATP) |
| --- | --- | --- |
| Nc1ncnc2c1ncn2[C@@H]1O[C@H](COP(=O)(O)OP(=O)(O)O)[C@@H](O)[C@H]1O [ADP] | active site of the second DacM protomer (protomer B), was consistent with a bound molecule of ADP | – |
| Nc1ncnc2c1ncn2[C@@H]1O[C@H](COP(=O)(O)OP(=O)(O)OP(=O)(O)O)[C@@H](O)[C@H]1O [ATP] | – | an ATP molecule, which was clearly bound in the active site of one DacM protomer |
